In patent publication US10782293B2, “Compositions and methods” (priority 2015, dated 2020):
Read-outs that look alike come from different tables or passages of the source.

Assays:
[1] = tested on: antibodies in serum of cattle known not to be infected; assay type: binding
[2] = tested on: antibodies in serum of cattle infected with M. avium paratuberculosis (MAP); assay type: binding; details: serum 1:20, IgG Fc secondary antibody, average of four replicates
[3] = tested on: antibodies in serum of cattle infected with bovine M. tuberculosis (B tb); assay: ELISA assay of antibody binding to antigen, serum of cattle naturally infected with bovine TB
Procedure: The binding of antibodies in serum of cattle infected with M. tuberculosis or M. avium with the antigens detailed in example 3 was measured in an ELISA assay.
ELISA assays were carried out as known to those practiced in the art using 96 well plates. In the first procedure, the ELISA assay was carried out on 96-well microplates and the purified antigens were dissolved in n-hexane at a concentration of 62.5 μg/ml. The antigen solutions were diluted and 50 μl and placed in each well. The plates were left to dry at room temperature overnight. Blocking was done with 0.5% casein/PBS (400 μl/well) and the plates are left to incubate at 25° C. for 1 h. The casein was aspirated using the LT-3500 plate washer and the plates flicked dry. Then the serum (1:20 dilution in 0.5% casein/PBS, pH 7.4) was added to the plate (50 μl/well) and left to incubate at 25° C. for 1 h. The serum was aspirated and washed three times with (casein/PBS, 400 μl/well) using the same plate washer and the plates were flicked dry again. After that, the secondary antibody, in the example given IgG Fc (1:1000 dilution in 0.5% casein/PBS) was added to the plate (50 μl/well) and the plates were left to incubate at 25° C. for 30 min. The plates were washed three times again with (casein/PBS, 400 μl/well) and dried. Then, the OPD substrate was added to the plates, which were left to incubate at 25° C. for 30 min. Finally, 2.5 M H2SO4 (50 μl/well) was added and the absorbances of each well were read at 492, 450 and 630 nm using an LT-4000 plate reader.
Serum used in this work was obtained from cattle infected with MAP, diagnosed as naturally infected with bovine TB, or known not to be infected using standard assays.
All measurements were taken as four replicates unless otherwise stated. These were averaged to provide the data in the table which are optical density measurements at 492 nm.

[4] = VLA (Non-vaccinates) serum sample 21
[5] = VLA (Non-vaccinates) serum sample 22
[6] = VLA (Non-vaccinates) serum sample 23
[7] = VLA (Non-vaccinates) serum sample 24
[8] = VLA (Non-vaccinates) serum sample 25
[9] = VLA (Non-vaccinates) serum sample 26
[10] = VLA (Non-vaccinates) serum sample 27
[11] = VLA (Non-vaccinates) serum sample 28
[12] = VLA (Non-vaccinates) serum sample 29
[13] = VLA (Non-vaccinates) serum sample 30
[14] = VLA (Non-vaccinates) serum sample 31
[15] = VLA (Non-vaccinates) serum sample 32
[16] = VLA (Non-vaccinates) serum sample 33
[17] = VLA (Non-vaccinates) serum sample 34
[18] = VLA (Non-vaccinates) serum sample 35
[19] = VLA (Non-vaccinates) serum sample 36
[20] = serum MAP (experimentally infected)
[21] = VLA (Naturally infected) bovis serum sample 1
[22] = VLA (Naturally infected) bovis serum sample 2
[23] = VLA (Naturally infected) bovis serum sample 3
[24] = VLA (Naturally infected) bovis serum sample 4
[25] = VLA (Naturally infected) bovis serum sample 5
[26] = VLA (Naturally infected) bovis serum sample 6
[27] = VLA (Naturally infected) bovis serum sample 7
[28] = VLA (Naturally infected) bovis serum sample 8
[29] = VLA (Naturally infected) bovis serum sample 9
[30] = VLA (Naturally infected) bovis serum sample 10
[31] = VLA (Naturally infected) bovis serum sample 11
[32] = VLA (Naturally infected) bovis serum sample 12
[33] = VLA (Naturally infected) bovis serum sample 13
[34] = VLA (Naturally infected) bovis serum sample 14
[35] = VLA (Naturally infected) bovis serum sample 15
[36] = VLA (Naturally infected) bovis serum sample 16
[37] = VLA (Naturally infected) bovis serum sample 17
[38] = VLA (Naturally infected) bovis serum sample 18
[39] = VLA (Naturally infected) bovis serum sample 19
[40] = VLA (Naturally infected) bovis serum sample 20

SMILES: CCCCCCCCCCCCCCCCCCCCCC[C@@H](C(=O)OCC1OC(OC2OC(CO)C(O)C(O)C2O)C(O)C(O)C1O)[C@H](O)CCCCCCCCCCCCCCCC[C@H]1C[C@@H]1[C@@H](C)CCCCCCCCCCCCCCCCCCC(=O)O[C@@H](C)CCCCCCCCCCCCCCCCCC (stereo partly shown) [Antigen G]
- optical density measurements at 492 nm [1, 4]: 0.37
- optical density measurements at 492 nm [1, 5]: 0.14
- optical density measurements at 492 nm [1, 6]: 0.24
- optical density measurements at 492 nm [1, 7]: 0.51
- optical density measurements at 492 nm [1, 8]: 0.27
- optical density measurements at 492 nm [1, 9]: 0.82
- optical density measurements at 492 nm [1, 10]: 0.55
- optical density measurements at 492 nm [1, 11]: 0.46
- optical density measurements at 492 nm [1, 12]: 1.58
- optical density measurements at 492 nm [1, 13]: 0.16
- optical density measurements at 492 nm [1, 14]: 1.99
- optical density measurements at 492 nm [1, 15]: 0.06
- optical density measurements at 492 nm [1, 16]: 0.10
- optical density measurements at 492 nm [1, 17]: 0.07
- optical density measurements at 492 nm [1, 18]: 0.07
- optical density measurements at 492 nm [1, 19]: 0.07
- optical density measurements at 492 nm ([2]; serum MAP (Naturally infected)): 4.38
- optical density measurements at 492 nm [2, 20]: 4.38
- optical density measurements at 492 nm [3, 21]: 3.68
- optical density measurements at 492 nm [3, 22]: 2.78
- optical density measurements at 492 nm [3, 23]: 4.06
- optical density measurements at 492 nm [3, 24]: 0.63
- optical density measurements at 492 nm [3, 25]: 1.04
- optical density measurements at 492 nm [3, 26]: 0.88
- optical density measurements at 492 nm [3, 27]: 2.34
- optical density measurements at 492 nm [3, 28]: 1.39
- optical density measurements at 492 nm [3, 29]: 0.40
- optical density measurements at 492 nm [3, 30]: 0.52
- optical density measurements at 492 nm [3, 31]: 1.63
- optical density measurements at 492 nm [3, 32]: 1.54
- optical density measurements at 492 nm [3, 33]: 0.26
- optical density measurements at 492 nm [3, 34]: 0.22
- optical density measurements at 492 nm [3, 35]: 0.15
- optical density measurements at 492 nm [3, 36]: 0.15
- optical density measurements at 492 nm [3, 37]: 0.11
- optical density measurements at 492 nm [3, 38]: 0.27
- optical density measurements at 492 nm [3, 39]: 0.11
- optical density measurements at 492 nm [3, 40]: 1.54

SMILES: CCCCCCCCCCCCCCCCCCCCCC[C@@H](C(=O)OCC1OC(OC2OC(COC(=O)[C@H](CCCCCCCCCCCCCCCCCCCCCC)[C@H](O)CCCCCCCCCCCCCCCC[C@H]3C[C@@H]3[C@@H](C)CCCCCCCCCCCCCCCCCCC(=O)O[C@@H](C)CCCCCCCCCCCCCCCCCC)C(O)C(O)C2O)C(O)C(O)C1O)[C@H](O)CCCCCCCCCCCCCCCC[C@H]1C[C@@H]1[C@@H](C)CCCCCCCCCCCCCCCCCCC(=O)O[C@@H](C)CCCCCCCCCCCCCCCCCC (stereo partly shown) [Antigen F]
- optical density measurements at 492 nm [1, 4]: 0.25
- optical density measurements at 492 nm [1, 5]: 0.25
- optical density measurements at 492 nm [1, 6]: 0.17
- optical density measurements at 492 nm [1, 7]: 0.21
- optical density measurements at 492 nm [1, 8]: 0.15
- optical density measurements at 492 nm [1, 9]: 3.66
- optical density measurements at 492 nm [1, 10]: 1.96
- optical density measurements at 492 nm [1, 11]: 0.36
- optical density measurements at 492 nm [1, 12]: 0.29
- optical density measurements at 492 nm [1, 13]: 0.26
- optical density measurements at 492 nm [1, 14]: 0.45
- optical density measurements at 492 nm [1, 15]: 0.06
- optical density measurements at 492 nm [1, 16]: 0.08
- optical density measurements at 492 nm [1, 17]: 0.11
- optical density measurements at 492 nm [1, 18]: 0.31
- optical density measurements at 492 nm [1, 19]: 0.12
- optical density measurements at 492 nm ([2]; serum MAP (Naturally infected)): 4.00
- optical density measurements at 492 nm [2, 20]: 1.44
- optical density measurements at 492 nm [3, 21]: 1.07
- optical density measurements at 492 nm [3, 22]: 0.67
- optical density measurements at 492 nm [3, 23]: 2.47
- optical density measurements at 492 nm [3, 24]: 0.67
- optical density measurements at 492 nm [3, 25]: 0.29
- optical density measurements at 492 nm [3, 26]: 0.18
- optical density measurements at 492 nm [3, 27]: 0.51
- optical density measurements at 492 nm [3, 28]: 2.23
- optical density measurements at 492 nm [3, 29]: 0.18
- optical density measurements at 492 nm [3, 30]: 0.24
- optical density measurements at 492 nm [3, 31]: 0.31
- optical density measurements at 492 nm [3, 32]: 1.08
- optical density measurements at 492 nm [3, 33]: 0.66
- optical density measurements at 492 nm [3, 34]: 0.23
- optical density measurements at 492 nm [3, 35]: 0.12
- optical density measurements at 492 nm [3, 36]: 0.62
- optical density measurements at 492 nm [3, 37]: 0.47
- optical density measurements at 492 nm [3, 38]: 0.52
- optical density measurements at 492 nm [3, 39]: 0.69
- optical density measurements at 492 nm [3, 40]: 1.08
